Three compounds from patent publication US11932872B2, “Dual chimeric antigen receptor-t cell which can be regulated, construction method therefor and use thereof” (NANJING ANJI BIOLOGICAL TECHNOLOGY CO., LTD, priority 2017, dated 2024) can be followed below.

Ends that are not written are not given here.

The subject of data set [1] is MSLN+K562 target cells (mixed 1:1 with CEA+K562). The data set can be described thus: Cytotoxicity test of sdCAR-T cells in vitro. It counts as cell-based, human. As to conditions: for percentage content of homologous target cells MSLN+K562 (green fluorescence): fluorescence detection, versus beginning of the test. Here is the method: The cytotoxicity of sdCAR-T cells was determined according to the survival rate of target cells (MSLN^+K562). The selected target cells were equal mixed cells of MSLN and CEA. […] The survival rate of MSLN target cells in each test group was calculated according to the following formula, and then the tumor killing ability of the constructed CARs-T cells in vitro could be analyzed.
1) Effector cells and mixed target cells (MSLN^+K562:CEA^+K562, 1:1) were co-incubated at a ratio of 5:2 in a U-shaped 96-well plate, RPMI1640 (10% FBS) was selected as a co-culture medium, and corresponding switching molecule s were added.
2) Culturing at 37° C. for 22 h with 5% CO2.
3) The ratio of MSLN and CEA tumor cells in each test group was detected by a flow cytometer, and then the survival rate of MSLN target cells was calculated.

In data set [2] the test system is MSLN+K562 cells (mixed 1:1 with CEA+K562). The data set can be described thus: Time regulation of in vitro activity of sdCAR-T cells by exogenous switching molecules. It counts as cell-based, human. As to conditions: switching molecule added at 4 h, sampled every 2 h, effector:target 5:2. How it is done:
This example verified that the killing activity of the sdCAR-T cells on tumor cells was subjected to time regulation by the switching molecules, and the selected target cells were MSLN single positive tumor cells and single positive tumor cells of negative control CEA. In the 14-hour test, the cytotoxicity of sdCAR-T cells was tested in real time with and without switching molecules. A total of four test groups were designed, each group had three parallel wells, and the design of test group was the same as that of Example 6.
1) Effector cells and mixed target cells (MSLN^+K562:CEA^+K562, 1:1) were co-incubated at a ratio of 5:2 in a 6-well plate, RPMI1640 (containing 10% FBS) was selected as a co-culture medium, cultured at 37° C. with 5% CO2.
2) 100 μL of cell suspension was taken every 2 h as the culturing begins at the 0 h.
3) Corresponding switching molecules were added at the 4 h.
4) Co-culturing for 10 h (that is, cell suspension was taken 6 times); after the culture, the ratio of MSLN and CEA tumor cells in each test group was detected by a flow cytometer, and then the survival rate of MSLN target cells was calculated.

For data set [3], the system named is MSLN+K562 cells (mixed equally with CEA+K562 cells, intraperitoneal). The data set can be described thus: Tumor killing test by sdCAR-T cells in vivo. As to conditions: nude mice; for in vivo cytokine (IL-2 and IFNγ) release level / in vivo cytokine (IL-2 and IFNγ) release level compared with Conventional CAR-T cell group: abdominal cavity fluid supernatant; for in vivo cytotoxicity of sdCAR-T cells: intraperitoneal tumor cells, abdominal cavity fluid by flow cytometry. Also noted: species or system nude mice BALB/c. How it is done:
Female nude mice BALB/c which were 6-8 weeks old were selected, MSLN^+K562 cells and CEA^+K562 cells were mixed equally and injected intraperitoneally into the nude mice, and then corresponding effector cells and switching molecules were added respectively. Refer to FIG. 19 for details of the in vivo test process. Six test groups were designed, with 6 nude mice in each group. Specific solutions are as follows:
group 1: effector cells are T cells (No CAR) and no switching molecules are added;
group 2: effector cells are the second generation of CAR-T cells (Conventional CAR) specific to MSLN, and no switching molecules are added;
group 3: effector cells are sdCAR-T cells and no switching molecules are added;
group 4: effector cells are sdCAR-T cells, and small molecule HM-3 is added;
group 5: effector cells are sdCAR-T cells and switching molecule FITC is added; and
After the test was completed, the nude mice were euthanized, and then 5 mL of pre-cooled PBS was injected into the abdominal cavities of the nude mice. After the abdominal cavities of the nude mice were rubbed many times, the abdominal cavity fluid was sucked out completely, and centrifuged at a centrifugal force of 800 g for 8 min. The cells were collected, and the percentage of the two tumor cells was measured by flow cytometry, and then the in vivo activity of sdCAR-T cells could be calculated. In addition, the above centrifuged supernatant was collected to measure the release levels of cytokines IL-2 and IFNγ respectively.
On the technique in general: In flow cytometry, cells or beads pass a laser one at a time.

The test system of a further data set is K562 tumor cells. In words: Killing curve of K562 tumor cells by puromycin / hygromycin. It counts as cell-based. As to conditions: 5 consecutive days. Here is the method:
1) Low-generation cell strains were resuscitated from liquid nitrogen, and subjected to conventional culture and passaged 5 times, then the cell state was adjusted to a logarithmic growth period.
2) A new 24-well plate was prepared, 50000 K562 tumor cells were inoculated per well for 7 wells in total, and 500 μL of complete culture medium (RPMI1640, 10% FBS) was added per well. The well plate was placed in an incubator at 37° C. with 5% CO2 and cultured overnight.
3) The cell well plate was taken out from the incubator, one well was left free of puromycin, and puromycin with final concentrations of 0.5, 1, 2, 4, and 8 μg/mL were added to the remaining wells respectively.
4) The well plate was placed in an incubator at 37° C. with 5% CO2 for continuous cultivation. The state of cells in the well plate was observed under a microscope every day for 5 consecutive days. And the minimum concentration that can completely kill all cells on the fifth day was taken as the puromycin concentration for subsequent stable cell strain screening.
The method is the same as that of Example 3.4. The concentration gradient of the hygromycin was set to 50, 100, 200, 400 and 800 μg/mL respectively, and the concentration of the hygromycin was finally selected to be 100 μg/mL through the determination of the killing curve.

As for “FHBM: FITC and polypeptide HM-3 coupled to form a bifunctional small molecule; exogenous switching molecule for sdCAR-T cells (IVRRADRAAVPGGGGRGD; also: FITC coupled to HM-3, site not given here)”, the “percentage content of homologous target cells MSLN+K562 (green fluorescence)” value in data set [1] is reported as “significantly lower than that at the beginning of the test”. Further, the “cytotoxicity of sdCAR-T cells after addition of switching molecule” value in data set [2] is given as “significant cytotoxicity”. In addition, in data set [3], the “in vivo cytokine (IL-2 and IFNγ) release level” value is reported as “release significant cytokine levels”; the “in vivo cytokine (IL-2 and IFNγ) release level compared with Conventional CAR-T cell group” value is reported as “only half of the level”; the “in vivo cytotoxicity of sdCAR-T cells” value is reported as “significant cytotoxicity”. Also, the “in vivo cytotoxicity of FHBM treatment group compared with FITC treatment group” value in data set [3] (sdCAR-T cells plus switching molecule) is listed as “better than that of the FITC treatment group”.
Regarding `COc1ccc(C[C@H](N)C(=O)N[C@H]2[C@@H](O)[C@H](n3cnc4c(N(C)C)ncnc43)O[C@@H]2CO)cc1` [puromycin], the “minimum concentration that can completely kill all cells on the fifth day (concentration selected from the killing curve)” value in the data set with K562 tumor cells was 1 µg/mL.
Turning to `O=C1OC2(c3ccc(O)cc3Oc3cc(O)ccc32)c2ccc(N=C=S)cc21` [FITC], the “survival rate of MSLN tumor cells” value in data set [1] (effector:mixed target cells 5:2, 22 h, flow cytometry) was “about 30.98%”. Also, in data set [1], the “percentage content of homologous target cells MSLN+K562 (green fluorescence)” value is on record as “significantly lower than that at the beginning of the test”. In addition, the “cytotoxicity of sdCAR-T cells after addition of switching molecule” value in data set [2] is “significant cytotoxicity”. Besides, in data set [3], the “in vivo cytokine (IL-2 and IFNγ) release level” value is given as “release significant cytokine levels”; the “in vivo cytokine (IL-2 and IFNγ) release level compared with Conventional CAR-T cell group” value is reported as “only half of the level”; the “in vivo cytotoxicity of sdCAR-T cells” value is recorded as “significant cytotoxicity”.
